Experimental findings from patent US10696692B2, “Amido-benzyl sulfone and sulfoxide derivates” (Forma TM, LLC, priority 2012, dated 2020) are described below.

Molecules are shown by their SMILES. Like-named read-outs stand apart in the source and are kept apart here.

One assay has as its system A2780 cells. Put plainly: Assay 2: In-Vitro Cell Proliferation Assay (A2780 cells, SRB readout, 72 hours).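 Also: viable cells counted via sulforhodamine B staining, absorbance at 570 nm, after 72 h exposure at 37 °C, DMSO 0.1% as control, media-only background subtracted.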 Format: cell-based. Conditions: Homo sapiens, A2780, 72 h, read-out: Cell Proliferation (IC50).
In a further assay the target is NAMPT (Homo sapiens (Human), UniProt P43490). Nature of the assay: Assay 1: Biochemical Inhibition Assay (NAMPT enzymatic reaction, NMN quantified by mass spectrometry).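 Also: recombinant His-tagged human NAMPT preincubated with compound 15 min, then reacted 30 min at rt with 1 µM NAM, 100 µM PRPP, 2.5 mM ATP, NMN product read by RapidFire MS, normalized to L-Cystathionine internal standard.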
NAMPT, sequence (P43490 whole entry): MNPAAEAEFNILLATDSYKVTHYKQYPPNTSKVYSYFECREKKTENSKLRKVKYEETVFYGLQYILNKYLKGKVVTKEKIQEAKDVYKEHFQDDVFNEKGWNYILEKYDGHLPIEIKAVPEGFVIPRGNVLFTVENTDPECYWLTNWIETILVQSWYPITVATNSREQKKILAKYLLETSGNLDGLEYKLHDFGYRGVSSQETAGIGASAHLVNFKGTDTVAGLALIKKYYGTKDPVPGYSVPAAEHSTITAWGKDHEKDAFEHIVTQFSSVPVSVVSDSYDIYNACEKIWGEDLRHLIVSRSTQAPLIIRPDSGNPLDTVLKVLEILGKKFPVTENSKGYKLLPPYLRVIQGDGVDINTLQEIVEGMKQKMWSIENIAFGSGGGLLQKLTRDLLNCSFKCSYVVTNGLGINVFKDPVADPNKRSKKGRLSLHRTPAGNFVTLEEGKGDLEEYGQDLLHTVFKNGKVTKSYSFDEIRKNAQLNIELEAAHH

In the case of `O=C(NCc1ccc([S+]([O-])C2CCN(C3CCOCC3)CC2)cc1)N1Cc2ccncc2C1` (stereo not shown) [Example 365, N-[[4-[(1-tetrahydropyran-4-yl-4-piperidyl)sulfinyl]phenyl]methyl]-1,3-dihydropyrrolo[3,4-c]pyridine-2-carboxamide], the IC50 in the assay on A2780 cells (A2780 cells, 72 hours, SRB) was 20 nM; at NAMPT (read-out: Biochemical (IC50)), 2.02 nM.

Consider `O=C(NCc1ccc(S(=O)(=O)N2CCCC(O)C2)cc1)c1cnc2nccn2c1` (racemic) [Example 32, Imidazo[1,2-a]pyrimidine-6-carboxylic acid 4-(3-hydroxy-piperidine-1-sulfonyl)-benzylamide], for which the IC50 in the assay with A2780 cells (A2780 cells, 72 hours, SRB) came to 861 nM; on NAMPT (read-out: Biochemical (IC50)) it was 7.7 nM.

As to `C[C@@H]1CN(S(=O)(=O)c2ccc(CNC(=O)c3ccc4nccn4c3)cc2)C[C@H](C)N1CC(F)(F)F` [Example 83, Imidazo[1,2-a]pyridine-6-carboxylic acid 4-[(3R,5S)-3,5-dimethyl-4-(2,2,2-trifluoro-ethyl)-piperazine-1-sulfonyl]-benzylamide], the IC50 was determined as 2.6 nM in the assay on A2780 cells (A2780 cells, 72 hours, SRB) and 7.7 nM at NAMPT (read-out: Biochemical (IC50)).

As for `O=C(NCc1ccc(S(=O)(=O)N2CC3CCNC3C2)cc1)c1ccc2nccn2c1` (stereo not shown) [Example 332, N-[[4-(2,3,3a,4,6,6a-hexahydro-1H-pyrrolo[3,4-b]pyrrol-5-ylsulfonyl)phenyl]methyl] imidazo[1,2-a]pyridine-6-carboxamide], the IC50 in the assay on A2780 cells (A2780 cells, 72 hours, SRB) turned out to be 171 nM; on NAMPT (read-out: Biochemical (IC50)), 174 nM.

Regarding `O=C(NCc1ccc(S(=O)(=O)N2CCC(F)(F)C2)cc1)c1cc2ccncc2o1` [Example 300, N-[[4-(3,3-difluoropyrrolidin-1-yl)sulfonylphenyl]methyl]furo [2,3-c]pyridine-2-carboxamide], the IC50 stood at 21.5 nM in the assay on A2780 cells (A2780 cells, 72 hours, SRB) and 21.4 nM on NAMPT (read-out: Biochemical (IC50)).

Regarding `O=C(NCc1ccc(S(=O)(=O)N2CCCC(O)C2)cc1)c1ccc2nccn2c1` (racemic) [Example 19, Imidazo[1,2-a)pyridine-6-carboxylic acid 4-(3-hydroxy-piperidine-1-sulfonyl)-benzylamide], the IC50 in the assay with A2780 cells (A2780 cells, 72 hours, SRB) was 25.3 nM; at NAMPT (read-out: Biochemical (IC50)) it was 18.1 nM.

Regarding `O=C(NCc1ccc(S(=O)(=O)C2CCN(C3CCOCC3)CC2)cc1)c1cnc2nccn2c1` [Example 224, N-[[4-[(1-tetrahydropyran-4-yl-4-piperidyl)sulfonyl]phenyl]methyl]imidazo[1,2-a]pyrimidine-6-carboxamide], the IC50 in the assay on A2780 cells (A2780 cells, 72 hours, SRB) turned out to be 47.9 nM; at NAMPT (read-out: Biochemical (IC50)), 3.98 nM.

With `O=C(NCc1ccc(S(=O)(=O)N2C3COCC2CC(O)C3)cc1)c1ccc2nccn2c1` (racemic) [Example 140, cis-Imidazo[1,2-a]pyridine-6-carboxylic acid 4-(7-hydroxy-3-oxa-9-aza-bicyclo[3.3.1]nonane-9-sulfonyl)-benzylamide], the IC50 in the assay on A2780 cells is 14.1 nM; at NAMPT (Biochemical (IC50)) it was 46.4 nM.

Turning to `O=C(NCc1ccc(S(=O)(=O)C2CCN(C3COC3)CC2)cc1)c1ccc2nccn2c1` [Example 114, Imidazo[1,2-a]pyridine-6-carboxylic acid 4-(l-oxetan-3-yl-piperidine-4-sulfonyl)-benzylamide], the IC50 turned out to be 5.6 nM with A2780 cells (A2780 cells, 72 hours, SRB) and 19.4 nM at NAMPT (read-out: Biochemical (IC50)).

Consider `O=C(NCc1ccc(S(=O)(=O)N2CCC[C@@H](O)C2)cc1)c1cc2ccncc2o1` [Example 151, Furo[2,3-c]pyridine-2-carboxylic acid 4-((R)-3-hydroxy-piperidine-1-sulfonyl)-benzylamide], for which the IC50 was found to be 45 nM with A2780 cells (A2780 cells, 72 hours, SRB) and 27.4 nM at NAMPT (read-out: Biochemical (IC50)).

Consider `O=C(NCc1ccc(S(=O)(=O)N2CC3CCC(C2)O3)cc1)c1ccc2nccn2c1` [Example 4, Imidazo[1,2-a]pyridine-6-carboxylic acid 4-(8-oxa-3-aza-bicyclo[3.2.1]octane-3-sulfonyl]-benzylamide], for which the IC50 in the assay on A2780 cells (A2780 cells, 72 hours, SRB) worked out at 7.4 nM; at NAMPT (read-out: Biochemical (IC50)), 72 nM.
